# Results from patent US11446270B2, “Leonurine crystal and use thereof in preparation of insulin sensitizer, hypoglycemic drug and lipid-lowering drug” (ZHUHAI HENGQIN NEW DISTRICT ZHONGZHU ZHENGTAI MEDICAL …, priority 2017, dated 2022).
# “Also recorded” adds a separate entry of the source.
# System: New Zealand white rabbit
# Assay: Serum lipids in hyperlipidemia New Zealand rabbits on high fat diet
# Assay type: in vivo
# Conditions: 12 weeks
# Experimental: Forty-eight male New Zealand rabbits weighed 1.8 to 2.2 kg were housed under 12 h dark-12 h light cycles and allowed food and water ad libitum to adapt to the housing environment for one week, and then randomly divided into 6 groups: • 1) Control group (Normal diet, n=8); Administered intragastrically with ultrapure water; • 2) Model group (High fat diet, n=8); Administered intragastrically with ultrapure water; • 3) Leonurine crystal form A in low dose group (High fat diet, n=8); Administered intragastrically at a dose of 4 mg/kg/day; • 4) Leonurine crystal form A in middle dose group (High fat diet, n=8); Administered intragastrically at a dose of 8 mg/kg/day; • 5) Leonurine crystal form A in high dose group (High fat diet, n=8); […] Administered intragastrically at a dose of 2.5 mg/kg/day; Rabbits were weighed before administered drugs every week, where the dosage of the drug for rabbits is calculate according to the weight; and housed in an air-conditioned room under (24±1° C. room temperature and 55±5% air humidity) and allowed enough food and water ad libitum. After 12 weeks of administration, the rabbits were fasted for 12 h, and blood (2 ml) was drawn from the marginal ear vein for hematology analysis. Hematology analysis: blood samples were let for standing for 2 h and centrifuged (3000 rpm, 10 min, 4° C.) to obtain serum. The serum samples were tested according to the protocols recommended by Nanjing Jiancheng Bioengineering Institute. The total cholesterol (TC), triacylglycerol (TG), low-density cholesterol (LDL-C) and […] (HDL-C) levels in the serum samples were assessed using automatic microplate reader and automatic biochemical analyzer. Statistical analysis: GraphPad Prism 5 software was used to analyze and draw figure. Results were expressed as the mean±standard (mean±SD), and statistical analysis was performed by one-way analysis of variance (ANOVA) or student's t test. A difference with P<0.05 was considered statistically significant. Statistical significance was set at *P<0.05, **P<0.01, ***P<0.001 versus the model group.
# [1] = dose not stated, listed as leonurine crystal form A
# [2] = high dose group 16 mg/kg/day intragastric, vs model group
smiles,measurement,setting,value
"COc1cc(C(=O)OCCCCNC(=N)N)cc(OC)c1O [crystal form A, 4-guanidino-1-butyl 4-hydroxy-3,5-dimethoxybenzoate]",serum total cholesterol (TC),[1],reduce; also recorded: decrease
same,serum triglycerides / total triacylglycerol (TG),[1],reduce; also recorded: decrease
same,serum total cholesterol (TC),[2],reduced
same,serum triacylglycerol (TG),[2],reduced
same,serum triacylglycerol (TG),"middle dose group 8 mg/kg/day intragastric, vs model group",reduced
